Experimental data reported in patent publication US11014915B2, “Selective estrogen receptor degrader” (SUN PHARMA ADVANCED RESEARCH COMPANY LIMITED, priority 2019, dated 2021).

Legend:
[1] = test system: subcutaneous MCF7-Y537S xenografts; assay: In-vivo efficacy in MCF7-Y537S mice xenografts; parameters: species or system female athymic nude mice
Experimental: In-Vivo Efficacy of Compound of Formula I and Compound of Formula Ia: […]
The efficacy of the compound of Formula I and the compound of Formula Ia were evaluated in female athymic nude mice harboring subcutaneous MCF7-Y537S xenografts. Dose formulations of the compound of Formula I and the compound of Formula Ia were prepared in Tween 80 (0.4% v/v of the total volume of suspension) in 0.5% w/v carboxymethylcellulose (CMC) and administered once daily orally for 28 days. Two perpendicular diameters of tumor were measured with digital Vernier caliper. Tumor volume (V) was calculated using the following equation: V=(a^2×b)/2, where “a” is the width of the tumor (small diameter), and “b” the length (large diameter), both in millimeters. Tumors were monitored twice weekly and compared with a vehicle treated group.

[2] = test system: MCF-7 cells harboring ER wild type (Wt); assay: MCF-7 cell growth inhibition assay, wild type; format: cell-based, human; conditions: for IC50: Homo sapiens, MCF7, 168 h, MCF-7 Wt, seven-day incubation
Experimental: MCF-7 Cell Growth Inhibition Assay:
The anti-proliferative activity of the test compounds were evaluated in a growth inhibition assay. Briefly, MCF-7 cells harboring ER wild type (Wt), and MCF-7 cells harboring mutant ER (WT/D538G and WT/Y537S) were seeded at a density of 1000 cells/well in 96-well plate in phenol red free RPMI1640 medium supplemented with 10% charcoal stripped fetal bovine serum. The cells were incubated overnight at 37° C. and 5% CO2 followed by the addition of varying concentrations of the test compounds in DMSO. Final concentration of DMSO in the well was 0.5%. Following a seven-day incubation of cells with the test compounds, cell viability was assessed using a Prestoblue™ reagent. The percent inhibition of cell proliferation was calculated by normalizing the cell viability using a vehicle control as 0% inhibition of proliferation.

[3] = target: T1, ER-α in MCF-7 cells harboring mutant ER (WT/D538G) (Homo sapiens, UniProt P03372, D538G); assay: ER-α degradation (SERD) assay, MCF-7 D538G; format: cell-based; conditions: for DC50: MCF-7 D538G, 4 days, read-out: ER-α degradation assay D538G IC50
T1 construct: MCF-7 cells harboring mutant ER (WT/D538G and WT/Y537S); endogenous in cells; host or cells: MCF-7 D538G (WT/D538G)
T1 sequence (P03372 1-595 D538G): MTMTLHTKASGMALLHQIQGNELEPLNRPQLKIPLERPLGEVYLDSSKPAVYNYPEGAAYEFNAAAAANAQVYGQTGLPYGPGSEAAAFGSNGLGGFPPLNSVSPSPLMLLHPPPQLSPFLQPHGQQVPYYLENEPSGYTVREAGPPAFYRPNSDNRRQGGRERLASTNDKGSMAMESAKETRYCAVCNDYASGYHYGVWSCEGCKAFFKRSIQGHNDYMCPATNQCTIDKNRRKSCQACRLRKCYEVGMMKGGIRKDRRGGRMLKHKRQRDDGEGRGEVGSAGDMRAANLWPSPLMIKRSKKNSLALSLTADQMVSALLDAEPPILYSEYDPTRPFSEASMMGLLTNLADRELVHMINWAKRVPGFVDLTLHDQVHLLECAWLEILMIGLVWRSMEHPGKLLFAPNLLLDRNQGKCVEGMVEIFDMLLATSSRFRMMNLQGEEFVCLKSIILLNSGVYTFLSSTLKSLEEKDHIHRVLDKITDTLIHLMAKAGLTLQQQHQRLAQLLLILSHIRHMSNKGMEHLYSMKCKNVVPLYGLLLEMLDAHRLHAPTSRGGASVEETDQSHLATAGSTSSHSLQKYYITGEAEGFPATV
Experimental: Selective Estrogen Receptor Degradation (SERD) Assay:
The SERD activity for the test compounds was evaluated in MCF-7 cells harboring ER wild type, and MCF-7 cells harboring mutant ER (WT/D538G and WT/Y537S). Briefly, cells were plated in phenol red free RPMI1640 medium supplemented with 5% charcoal stripped fetal bovine serum. The seeding density was 40000 cells/well for MCF-7 WT and MCF-7 D538G and 50000 cells/well MCF-7 Y537S in a 48-well plate. Following overnight incubation, the cells were treated with varying concentrations of test compounds (final concentration: 1000 nM to 0.01 nM, 0.1% DMSO) for 4 days. The cells were lysed using PBS supplemented with 1 mM EDTA, 0.5% Triton X-100, 5 mM NaF, 6 M urea, and 1× Protease inhibitor cocktail. The lysate was analyzed for ER alpha protein using western blot. For the western blot, the cell lysate (12.5-40 μg total protein) was resolved on a 10% SDS PAGE and transferred onto a PVDF membrane. The blots were blocked using 5% skim milk powder in 0.1% PBS-T for 1 hour at room temperature, followed by co-incubation with rabbit anti-human β-actin antibody and rabbit anti-human ERα antibody for 2 hours at room temperature. The blots were subsequently probed with anti-rabbit IgG-HRP conjugate as secondary antibody for 1 hour at room temperature. The blots were developed by using West Pico Super Signal Chemiluminescence substrate and the bands were processed for densitometry analysis using Image Lab software (BioRad version 6.0.0). ERα band intensity was normalized to that housekeeping protein for respective samples. The % ER remaining was calculated by normalizing against the vehicle control (as 100%).

CC1=C(c2cc(F)cc(F)c2)[C@H](c2ccc(/C=C/CN3CC(CF)C3)cc2)Oc2cc(O)ccc21 [Formula Ia, (2S)-3-(3,5-difluorophenyl)-2-[4-[(E)-3-[3-(fluoromethyl)azetidin-1-yl]prop-1-enyl]phenyl]-4-methyl-2H-chromen-7-ol]
% Tumor growth inhibition compared to vehicle group after 28 days ([1]; 50 mg/kg, p.o., 28 days, once daily): 56%
Tumor growth compared to the vehicle group (in words) ([1]; once daily orally for 28 days): significant reduction in the tumor growth
IC50 [2]: 0.3 nM
Potency of Formula Ia relative to Formula Ib in MCF-7 growth inhibition assay ([2]; wild type): about 233 times
DC50 [3]: 0.0127 µM

CC1=C(c2cc(F)cc(F)c2)[C@@H](c2ccc(/C=C/CN3CC(CF)C3)cc2)Oc2cc(O)ccc21 [Formula Ib, (2R)-3-(3,5-difluorophenyl)-2-[4-[(E)-3-[3-(fluoromethyl)azetidin-1-yl]prop-1-enyl]phenyl]-4-methyl-2H-chromen-7-ol]
IC50 [2]: 69.9 nM
ER-α degradation in mutated cell line (in words) ([3]; D538G): no ER-α degradation
DC50 [3]: > 1 µM
